Assay results as given in patent publication US6696249B1, “Method for screening for inhibitors and activators of type III secretion machinery in gram-negative bacteria” (priority 1998, dated 2004).

Experiments:
[1] = system: icsB-, ipaA-, ipgD-, and mxiD-lacZ fusions; experiment: entry region lacZ fusions taken together, transcription in vitro; assay type: cell-based, Shigella flexneri; details: Congo red in the growth medium
mxiD-lacZ fusion = experiment: mxiD-lacZ transcriptional fusion, β-galactosidase activity in vitro; assay type: cell-based, Shigella flexneri
virA-lacZ fusion = assay type: cell-based, Shigella flexneri
Protocol: (§1) All Shigella flexneri strains identified in Table I are derivatives of the wild-type strain M90T (Sansonetti et al., 1982). Bacteria were grown in Luria-Bertani (LB) medium or tryptic soy (TCS) broth. Antibiotics were used at the following concentrations: ampicillin, 100 μg/ml; kanamycin, 30 μg/ml; and streptomycin, 100 μg/ml. Congo red (SERVA, Heidelberg, Germany) was used to induce secretion by bacteria growing in LB medium.
Secretion of IpaB and IpaC is enhanced when bacteria grow in the presence of Congo red (Parsot et al, 1995). To investigate the effect of Congo red on virA transcription, we assayed the β-galactosidase activity in strain SF1001 (virA-lacZ ipaD^+) after growth in the presence of various concentrations of Congo red.
(§2) To investigate kinetics of activation of the virA promoter, Congo red (100 μg/ml) was added to the growth medium during the exponential phase of growth of derivatives of the wild-type and mxiD strains carrying the virA-lacZ fusion. Samples were then collected at 5 min intervals and assayed for β-galactosidase activity.
(§3) The β-galactosidase activity present in bacteria growing in laboratory media was assayed by using the substrate o-nitro-phenyl-β-D-galactoside (ONPG) as described (Platt et al, 1972). The β-galactosidase activity present in intracellular bacteria was assayed by using the substrate 4-methyl-umbelliferyl-β-D-galactoside (MUG) as described (Klarsfeld et al., 1994). Fluorescence was measured by using a Dynatec apparatus, with 365 nm excitation and 450 nm emission wavelengths. Activities were computed as fluorescence units per hour per bacterium; four fluorescence units were equivalent to one Miller unit and all results are presented in Miller units.

virA-lacZ mxiD = experiment: virA-lacZ transcriptional fusion in mxiD (secretion deficient) strain SF1012, β-galactosidase activity in vitro; assay type: cell-based, Shigella flexneri
Protocol: as §1
To determine whether regulation of virA transcription was dependent on the type III secretion machinery, we compared the β-galactosidase activities produced by the virA-lacZ fusion in derivatives of wild-type (SF1001) and mxiD (SF1012) strains during growth in the presence of Congo red and we compared the production of VirA in ipaD and mxiD ipaD strains.
as §2, §3

ipaH1.4-lacZ fusion = experiment: ipaH1.4-lacZ transcriptional fusion, β-galactosidase activity in vitro; assay type: cell-based, Shigella flexneri; details: ipaD+ strain
[2] = system: Secretion of IpaB and IpaC; details: Parsot et al, 1995; cited from earlier work
ipaA-lacZ fusion = experiment: ipaA-lacZ transcriptional fusion, β-galactosidase activity in vitro; assay type: cell-based, Shigella flexneri
ipgD-lacZ fusion = experiment: ipgD-lacZ transcriptional fusion, β-galactosidase activity in vitro; assay type: cell-based, Shigella flexneri
ipaH7.8-lacZ fusion = experiment: ipaH7.8-lacZ transcriptional fusion, β-galactosidase activity in vitro; assay type: cell-based, Shigella flexneri; details: ipaD+ strain
icsB-lacZ fusion = experiment: icsB-lacZ transcriptional fusion, β-galactosidase activity in vitro; assay type: cell-based, Shigella flexneri
ipaH9.8-lacZ fusion = experiment: ipaH9.8-lacZ transcriptional fusion, β-galactosidase activity in vitro; assay type: cell-based, Shigella flexneri; details: ipaD+ strain
ipaH4.5-lacZ fusion = experiment: ipaH4.5-lacZ transcriptional fusion, β-galactosidase activity in vitro; assay type: cell-based, Shigella flexneri; details: ipaD+ strain
[3] = system: ipaH9.8-, ipaH7.8-, ipaH4.5-, and ipaH1.4-lacZ fusions; experiment: ipaH-lacZ fusions taken together, β-galactosidase activity in vitro; assay type: cell-based, Shigella flexneri; details: 100 μg/ml of Congo red
[4] = ipaD+ strain grown in presence of Congo red

With `Nc1c(/N=N/c2ccc(-c3ccc(/N=N/c4cc(S(=O)(=O)O)c5ccccc5c4N)cc3)cc2)cc(S(=O)(=O)O)c2ccccc12` [Congo red] as the compound, how does the “Effect of Congo red in growth medium on transcription” value [1] read?
The value was “not affected”.

What about the “Ratio li: activity with Congo red versus without Congo red” value (mxiD-lacZ fusion; ipaD+ strain) of the same compound?
Its value is 1.2.

What about the “β-galactosidase activity, ipaD+ + CR” value (mxiD-lacZ fusion; [4]) of the same compound?
The value was 320 Miller units.

And the “Concentration of Congo red at which virA-lacZ transcription reaches a plateau” value (virA-lacZ fusion)?
The value was “about 100 μg/ml”.

What about the “Transcription of the virA-lacZ fusion at low dye concentrations” value (virA-lacZ fusion; SF1001, concentrations of dye up to 20 μg/ml) of the same compound?
Its value is “low”.

And the “Ratio li: activity with Congo red versus without Congo red” value (virA-lacZ fusion; virA-lacZ, ipaD+ strain)?
The value was 17.

And the “β-galactosidase activity, ipaD+ + CR” value (virA-lacZ fusion; virA-lacZ, ipaD+ strain grown in presence of 100 μg/ml Congo red, mean of at least three experiments)?
Its value is 280 Miller units.

And the “Time after addition of the dye at which an increase in β-galactosidase specific activity was detected” value (virA-lacZ fusion; wild-type derivative, Congo red 100 μg/ml added in exponential phase, samples at 5 min intervals)?
Its value is 10 min.

What about the “Transcriptional activation of the virA-lacZ fusion after addition of the dye” value (virA-lacZ mxiD; mxiD mutant derivative, Congo red 100 μg/ml added in exponential phase) of the same compound?
The value was “no transcriptional activation”.

What about the “Increase in β-galactosidase activity on growth with Congo red” value (virA-lacZ mxiD; mxiD strain carrying virA-lacZ, Congo red in growth medium) of the same compound?
Its value is “did not lead to an increase”.

What about the “Ratio li: activity with Congo red versus without Congo red” value (virA-lacZ mxiD; virA-lacZ mxiD strain) of the same compound?
Its value is 1.1.

What about the “β-galactosidase activity, ipaD+ + CR” value (virA-lacZ mxiD; virA-lacZ mxiD strain grown in presence of Congo red) of the same compound?
Its value is 18 Miller units.

What about the “Ratio li: activity with Congo red versus without Congo red” value (ipaH1.4-lacZ fusion) of the same compound?
Its value is 5.1.

And the “β-galactosidase activity, ipaD+ + CR” value (ipaH1.4-lacZ fusion; 100 μg/ml Congo red)?
Its value is 270 Miller units.

What about the “Secretion of IpaB and IpaC when bacteria grow in the presence of Congo red” value [2] of the same compound?
The value was “enhanced”.

What about the “Ratio li: activity with Congo red versus without Congo red” value (ipaA-lacZ fusion; ipaD+ strain) of the same compound?
The value was 0.8.

And the “β-galactosidase activity, ipaD+ + CR” value (ipaA-lacZ fusion; [4])?
Its value is 390 Miller units.

And the “Ratio li: activity with Congo red versus without Congo red” value (ipgD-lacZ fusion; ipaD+ strain)?
Its value is 1.1.

What about the “β-galactosidase activity, ipaD+ + CR” value (ipgD-lacZ fusion; [4]) of the same compound?
The value was 475 Miller units.

What about the “Ratio li: activity with Congo red versus without Congo red” value (ipaH7.8-lacZ fusion) of the same compound?
The value was 12.

What about the “β-galactosidase activity, ipaD+ + CR” value (ipaH7.8-lacZ fusion; 100 μg/ml Congo red) of the same compound?
Its value is 235 Miller units.

And the “Ratio li: activity with Congo red versus without Congo red” value (icsB-lacZ fusion; ipaD+ strain)?
Its value is 1.0.

What about the “β-galactosidase activity, ipaD+ + CR” value (icsB-lacZ fusion; [4]) of the same compound?
Its value is 285 Miller units.

What about the “Ratio li: activity with Congo red versus without Congo red” value (ipaH9.8-lacZ fusion) of the same compound?
Its value is 12.

And the “β-galactosidase activity, ipaD+ + CR” value (ipaH9.8-lacZ fusion; 100 μg/ml Congo red)?
The value was 325 Miller units.

What about the “Ratio li: activity with Congo red versus without Congo red” value (ipaH4.5-lacZ fusion) of the same compound?
Its value is 3.5.

And the “β-galactosidase activity, ipaD+ + CR” value (ipaH4.5-lacZ fusion; 100 μg/ml Congo red)?
Its value is 110 Miller units.

What about the “Times more β-galactosidase activity after growth with Congo red” value [3] of the same compound?
The value was 3-12 times.
